From ChEMBL document CHEMBL1133590, “Study on selectin blocker. 8. Lead discovery of a non-sugar antagonist using a 3D-pharmacophore model” (J Med Chem, 2000)
pIC50: −log10 of the molar value.

Target: T1, E-selectin (Mus musculus, UniProt Q00690)
T1 sequence (Q00690 whole entry): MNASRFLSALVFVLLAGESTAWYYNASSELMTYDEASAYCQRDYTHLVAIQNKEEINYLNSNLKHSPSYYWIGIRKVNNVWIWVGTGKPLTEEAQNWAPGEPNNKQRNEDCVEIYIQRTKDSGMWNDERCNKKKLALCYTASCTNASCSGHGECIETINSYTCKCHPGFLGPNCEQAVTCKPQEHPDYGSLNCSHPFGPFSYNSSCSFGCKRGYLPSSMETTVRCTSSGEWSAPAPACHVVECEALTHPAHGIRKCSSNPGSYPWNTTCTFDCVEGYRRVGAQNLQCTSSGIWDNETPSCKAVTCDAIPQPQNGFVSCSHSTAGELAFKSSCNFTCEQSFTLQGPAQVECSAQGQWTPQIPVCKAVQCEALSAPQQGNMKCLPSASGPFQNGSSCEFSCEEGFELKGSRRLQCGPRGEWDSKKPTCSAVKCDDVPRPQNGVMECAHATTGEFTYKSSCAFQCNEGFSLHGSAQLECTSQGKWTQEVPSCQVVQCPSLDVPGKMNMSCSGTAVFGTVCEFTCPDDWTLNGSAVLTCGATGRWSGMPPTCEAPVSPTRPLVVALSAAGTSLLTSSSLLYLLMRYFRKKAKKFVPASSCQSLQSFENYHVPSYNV
Experiment: Evaluated for the inhibitory activity against Selectin E

| Compound | pIC50 |
| --- | --- |
| CCCCCCCCCCCCCCCCCC(=O)Nc1ccc(C(=O)Nc2cc(C(=O)O)ccc2Oc2cccc(C(=O)O)c2)cc1 | 4.07 |
| CCCCCCCCCCCCCCCCCC(=O)Nc1ccc(C(=O)CC(=O)Nc2cc(C(=O)O)ccc2Oc2cc(C(=O)O)cc(C(=O)O)c2)cc1 | 2.92 |
| CCCCCCCCCCCCCCC(CCCCCCCCCCCCCC)C(=O)N[C@@H](CO[C@@H]1OC(C)[C@@H](O)[C@H](O)C1O)C(=O)N[C@H](CCC(=O)O)C(=O)NC (stereo not given in full) | 4.89 |
| CC(=O)N[C@H]1[C@H]([C@H](O)[C@H](O)CO)O[C@@](O[C@H]2[C@@H](O)[C@@H](CO)O[C@@H](O[C@@H]([C@H](O[C@@H]3O[C@@H](C)[C@@H](O)[C@@H](O)[C@@H]3O)[C@H](C=O)NC(C)=O)[C@H](O)CO)[C@@H]2O)(C(=O)O)C[C@@H]1O [SIALYL LEWIS X] | 3.24 |
| CCCCCCCCCCCCCCCCCC(=O)Nc1ccc(C(=O)Nc2cc(C(=O)O)ccc2Oc2cc(C(=O)O)cc(C(=O)O)c2)cc1 | < 3.30 |
